From patent US20240174680A1, “CDK2 INHIBITORS AND METHODS OF USING THE SAME” (Cedilla Therapeutics, Inc., priority 2021, published 2024) come the findings set out here.

Structures are written as SMILES. Where only a bound is given, the exact number is not on record here.

For this assay, the target named is CDK2/Cyclin E1 (Homo sapiens, UniProt P24941). Nature of the assay: CDK2/Cyclin E1 Caliper LabChip EZ Reader mobility shift assay. It counts as biochemical. Details: purchased Eurofins 14-475. The conditions noted are these: read-out: Caliper Assay (CDK2/CCNE1): IC50. A digest of the protocol: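 Mobility-shift kinase assay: compound titrations preincubated 30 min with enzyme and ATP, reaction started with 5-FAM-QSPKKG-CONH2 peptide. Final 2.5 nM CDK2/Cyclin E1, 100 μM ATP, 1.5 μM peptide, HEPES pH 7.5; stopped with EDTA after 100 min. IC50 from four-parameter fit of normalized conversion ratio.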
With `C[C@@H](OCC1CCC(F)(F)CC1)[C@@H](COC1CCOCC1)NC(=O)[C@@H]1CN(C(=O)c2cncs2)CC12CN(C(=O)[C@H]1CC1(C)C)C2` [I-314], the IC50 was no more than 0.01 µM.

On to `CNC(=O)[C@@H](NC(=O)[C@@H]1CN(C(=O)c2cnn(Cc3ccc(F)cc3)c2)CC12CN(C(=O)[C@H]1CC1(C)C)C2)[C@@H](C)OCC1CCC(F)(F)CC1` [I-170], for which the IC50 was no more than 0.01 µM.

Take `C[C@@H](OCC1CCCCC1)[C@H](NC(=O)[C@H]1CN(C(=O)c2cnn(Cc3ccccc3)c2)CC12CN(C(=O)[C@H]1CC1(C)C)C2)C(=O)N1CCOCC1` [I-152B]: the IC50 lay in the range of 1 to 10 µM.

Turning to `CNC(=O)[C@@H](NC(=O)[C@@H]1CN(C(=O)Cc2cn[nH]c2)CC12CN(C(=O)[C@H]1CC1(C)C)C2)[C@@H](C)OCc1ccccc1` [I-358], the IC50 is greater than 10 µM.

Take `CNC(=O)[C@@H](NC(=O)[C@@H]1CN(C(=O)c2cncs2)CC12CN(C(=O)[C@H]1CC1(C)C)C2)[C@@H](C)OCC1CC2CCC1C2` (stereo partly shown) [I-465]: the IC50 was no more than 0.01 µM.

Consider `CC1(C)C[C@@H]1C(=O)N1CC2(CN(C(=O)c3cnn(Cc4ccccc4)c3)C[C@@H]2C(=O)N[C@H]2C[C@@H]2c2cccc(Cl)c2)C1` [I-140B], for which the IC50 is greater than 10 µM.

Regarding `CNC(=O)[C@@H](NC(=O)[C@@H]1CN(C(=O)c2sc(C)nc2C)CC12CN(C(=O)[C@H]1CC1(C)C)C2)[C@@H](C)OCC1CCCCC1` [I-213A], the IC50 was in the range of 0.01 to 0.1 µM.

Regarding `CC1(C)C[C@@H]1C(=O)N1CC2(CN(C(=O)c3cnn(Cc4ccccc4)c3)C[C@H]2C(=O)NC[C@H]2CC[C@@H](C)CC2)C1` [I-388], the IC50 is greater than 10 µM.

For the compound `COC[C@@H]1CCCN(C(=O)[C@@H](NC(=O)C2CN(C(=O)c3cncs3)CC23CN(C(=O)[C@H]2CC2(C)C)C3)[C@@H](C)OCC2CCCCC2)C1` (stereo partly shown) [I-195], the IC50 is no more than 0.01 µM.

On to `CNC(=O)[C@@H](NC(=O)[C@@H]1CN(C(=O)c2cncs2)CC12CN(C(=O)[C@H]1CC1(C)C)C2)[C@@H](C)OC[C@H]1CC[C@@H](C)CC1` [I-354], for which the IC50 is no more than 0.01 µM.

`CCCCC1CC1C(=O)N1CC2(CN(C(=O)c3cnn(Cc4ccccc4)c3)C[C@H]2C(=O)N[C@H](C(=O)NC)[C@@H](C)OCc2ccccc2)C1` (stereo partly shown) [I-94A]: the IC50 was greater than 10 µM.

Take `CNC(=O)[C@@H](NC(=O)[C@H]1CN(C(=O)c2cccnc2)CC12CN(C(=O)[C@H]1CC1(C)C)C2)[C@@H](C)OCc1ccccc1` [I-42B]: the IC50 was greater than 10 µM.

As for `CC1(C)C[C@@H]1C(=O)N1CC2(CN(C(=O)c3cnn(Cc4ccccc4)c3)C[C@@H]2C(=O)NCCOCc2ccccc2)C1` [I-96B], the IC50 is greater than 10 µM.

For the compound `CNC(=O)[C@@H](NC(=O)[C@H]1CN(C(=O)c2cnn(Cc3ccccc3)c2)CC12CN(C(=O)C(C)(C)C)C2)[C@@H](C)OCC1CCCCC1` [I-174B], the IC50 lay in the range of 0.1 to 1 µM.

For the compound `CC1(C)C[C@@H]1C(=O)N1CC2(CN(C(=O)c3cnn(Cc4ccccc4)c3)C[C@H]2C(=O)NC2CCN(C(=O)c3ccccc3)CC2)C1` [I-61A], the IC50 fell in the range of 1 to 10 µM.

As to `CNC(=O)[C@@H](NC(=O)[C@@H]1CN(C(=O)c2cnn(C)c2)CC12CN(C(=O)[C@H]1CC1(C)C)C2)[C@@H](C)OCc1ccccc1` [I-33A], the IC50 was 0.1 to 1 µM.

Regarding `CNC(=O)[C@@H](NC(=O)[C@H]1CN(C(=O)c2ccccn2)CC12CN(C(=O)[C@H]1CC1(C)C)C2)[C@@H](C)OCc1ccccc1` [I-45B], the IC50 is greater than 10 µM.

Turning to `CNC(=O)[C@@H](NC(=O)[C@@H]1CN(C(=O)c2cnn(Cc3ccccc3)c2)CC12CN(C(=O)[C@H]1CC1(C)C)C2)[C@@H](C)OCC1CCCC1` [I-110A], the IC50 lay in the range of 0.01 to 0.1 µM.

Regarding `C[C@@H](OC(C)(C)C1CCCCC1)[C@H](NC(=O)[C@@H]1CN(C(=O)c2cncs2)CC12CN(C(=O)[C@H]1CC1(C)C)C2)C(=O)N1CCCCC1` [I-395], the IC50 lay in the range of 0.01 to 0.1 µM.

As to `CNC(=O)[C@@H](NC(=O)[C@@H]1CN(C(=O)c2cnn(Cc3ccc(F)cc3)c2)CC12CN(C(=O)[C@H]1CC1(C)C)C2)[C@@H](C)OCc1ccc(F)cc1` [I-136A], the IC50 fell in the range of 0.01 to 0.1 µM.

For the compound `CC(C)(O)C(NC(=O)[C@@H]1CN(C(=O)c2cncs2)CC12CN(C(=O)[C@H]1CC1(C)C)C2)c1cccc(C2CCOCC2)n1` (stereo partly shown) [I-423], the IC50 lay in the range of 1 to 10 µM.

As for `CC1(C)C[C@@H]1C(=O)N1CC2(CN(C(=O)c3cnn(Cc4ccccc4)c3)C[C@H]2C(=O)N2CCC[C@H](OCC3CCCCC3)C2)C1` [I-236], the IC50 was 1 to 10 µM.

For `CO[C@H]1COCC[C@H]1NC(=O)[C@@H]1CN(C(=O)c2cnn(Cc3ccccc3)c2)CC12CN(C(=O)[C@H]1CC1(C)C)C2` [I-134A], the IC50 is greater than 10 µM.

`CC1(C)C[C@@H]1C(=O)N1CC2(CN(C(=O)c3cnn(Cc4ccccc4)c3)C[C@@H]2C(=O)N[C@@H]2CC[C@@H]2O)C1` [I-201A]: the IC50 was greater than 10 µM.

`C[C@@H](OCC1CCCCC1)[C@H](NC(=O)[C@@H]1CN(C(=O)c2cnn(Cc3ccccc3)c2)CC12CN(C(=O)[C@H]1CC1(C)C)C2)C(=O)N1CCC[C@@H](N)C1` [I-218]: the IC50 was no more than 0.01 µM.

In the case of `Cc1ccc(CNC(=O)[C@@H]2CN(C(=O)c3cnn(Cc4ccccc4)c3)CC23CN(C(=O)C(C)(C)C2CC2)C3)nn1` [I-387, (S)-6-(1-benzyl-1H-pyrazole-4-carbonyl)-2-(2-cyclopropyl-2-methylpropanoyl)-N-((6-methylpyridazin-3-yl)methyl)-2,6-diazaspiro[3.4]octane-8-carboxamide], the IC50 was greater than 10 µM.

`CNC(=O)[C@@H](NC(=O)C1(C)CN(C(=O)c2cnn(Cc3ccccc3)c2)CC12CN(C(=O)[C@H]1CC1(C)C)C2)[C@@H](C)OCc1ccccc1` (stereo partly drawn) [I-498, 6-(1-benzyl-1H-pyrazole-4-carbonyl)-N-((2S,3R)-3-(benzyloxy)-1-(methylamino)-1-oxobutan-2-yl)-2-((S)-2,2-dimethylcyclopropane-1-carbonyl)-8-methyl-2,6-diazaspiro[3.4]octane-8-carboxamide]: the IC50 was in the range of 1 to 10 µM.

For `Cc1ccc(CNC(=O)[C@@H]2CN(C(=O)c3cnn(Cc4ccncc4F)c3)CC23CN(C(=O)[C@H]2CC2(C)C)C3)nn1` [I-35], the IC50 is greater than 10 µM.

Regarding `CC1(C)C[C@@H]1C(=O)N1CC2(CN(C(=O)c3cnn(Cc4ccccc4)c3)C[C@H]2C(=O)Nc2cccc(Cc3ccccc3)c2)C1` [I-75A], the IC50 was in the range of 1 to 10 µM.

In the case of `CNC(=O)[C@@H](NC(=O)[C@@H]1CN(C(=O)c2cncs2)CC12CN(C(=O)C(C)(C)C)C2)[C@@H](C)OCC1CCCCC1` [I-186A], the IC50 fell in the range of 0.01 to 0.1 µM.

In the case of `[2H]C([2H])([2H])OC[C@H]1CCCN(C(=O)[C@@H](NC(=O)[C@@H]2CN(C(=O)c3cncs3)CC23CN(C(=O)C(C)(C)C2CC2)C3)[C@@H](C)OCC23CCC(CC2)OC3)C1` [I-459], the IC50 was in the range of 0.01 to 0.1 µM.

With `CNC(=O)[C@@H](NC(=O)[C@@H]1CN(C(=O)c2cncs2)CC12CN(C(=O)[C@H]1CC1(C)C)C2)[C@@H](C)OC(C)C1CCCCC1` (stereo partly shown) [I-279], the IC50 lay within 0.01 to 0.1 µM.

As to `CNC(=O)[C@@H](NC(=O)[C@H]1CN(C(=O)c2cnc(C)s2)CC12CN(C(=O)[C@H]1CC1(C)C)C2)[C@@H](C)OCC1CCCCC1` [I-156B], the IC50 was greater than 10 µM.

For the compound `C[C@@H](OCC1CCOCC1)[C@@H](COC1CCC(F)(F)CC1)NC(=O)[C@@H]1CN(C(=O)c2cncs2)CC12CN(C(=O)[C@H]1CC1(C)C)C2` [I-312], the IC50 was 0.01 to 0.1 µM.

On to `CC1(C)C[C@@H]1C(=O)N1CC2(CN(C(=O)c3cnn(Cc4ccccc4)c3)C[C@H]2C(=O)NCC2CCCCO2)C1` (stereo partly shown) [I-221], for which the IC50 is greater than 10 µM.

Turning to `COC[C@H]1CCCN(C(=O)[C@@H](NC(=O)[C@@H]2CN(C(=O)c3cncs3)CC23CN(C(=O)[C@H]2CC2(C)C)C3)[C@@H](C)O[C@@H](C)C2CCCCC2)C1` [I-369], the IC50 is no more than 0.01 µM.

Regarding `CNC(=O)[C@@H](NC(=O)[C@H]1CN(Cc2cn[nH]c2)CC12CN(C(=O)[C@H]1CC1(C)C)C2)[C@@H](C)OCc1ccccc1` [I-50B], the IC50 was greater than 10 µM.

Take `Cc1ccc(CNC(=O)[C@@H]2CN(C(=O)c3cnn(Cc4ccccn4)c3)CC23CN(C(=O)[C@H]2CC2(C)C)C3)nn1` [I-417]: the IC50 was greater than 10 µM.

On to `CNC(=O)[C@@H](NC(=O)[C@@H]1CN(Cc2ccncc2)CC12CN(C(=O)[C@H]1CC1(C)C)C2)[C@@H](C)OCc1ccccc1` [I-55A], for which the IC50 is greater than 10 µM.

As for `CNC(=O)[C@@H](NC(=O)[C@H]1CN(Cc2n[nH]c3ccccc23)CC12CN(C(=O)[C@H]1CC1(C)C)C2)[C@@H](C)OCc1ccccc1` [I-143], the IC50 is greater than 10 µM.

As to `CNC(=O)[C@@H](NC(=O)[C@H]1CN(Cc2cnc[nH]2)CC12CN(C(=O)[C@H]1CC1(C)C)C2)[C@@H](C)OCc1ccccc1` [I-77B], the IC50 was greater than 10 µM.

For `CNC(=O)[C@@H](NC(=O)[C@@H]1CN(C(=O)c2nccs2)CC12CN(C(=O)[C@H]1CC1(C)C)C2)[C@@H](C)OCC1CCCCC1` [I-169], the IC50 is greater than 10 µM.

As to `C[C@@H](OCc1ccccc1)[C@H](NC(=O)C1CN(C(=O)c2cnn(Cc3ccccc3)c2)CC12CN(C(=O)[C@H]1CC1(C)C)C2)C(=O)NCCC(=O)O` (stereo partly shown) [I-29], the IC50 fell in the range of 0.1 to 1 µM.

Take `C[C@@H](OCC12CCC(CC1)OC2)[C@H](NC(=O)[C@@H]1CN(C(=O)c2cncs2)CC12CN(C(=O)[C@H]1CC1(C)C)C2)C(=O)N1CCC(C)(C)CC1` [I-452]: the IC50 is no more than 0.01 µM.

`CNC(=O)[C@@H](NC(=O)[C@@H]1CN(C(=O)c2cnn(Cc3ccccc3)c2)CC12CN(C(=O)CC1CC1)C2)[C@@H](C)OCC1CCCCC1` [I-56A]: the IC50 is 0.1 to 1 µM.

Take `CNC(=O)[C@@H](NC(=O)[C@@H]1CN(C(=O)c2cnn(Cc3ccccc3)c2)CC12CN(C(=O)c1ccccc1)C2)[C@@H](C)OCc1ccccc1` [I-26A]: the IC50 is 1 to 10 µM.

On to `CC1(C)C[C@@H]1C(=O)N1CC2(CN(C(=O)c3cnn(Cc4ccccc4)c3)C[C@@H]2C(=O)Nc2cccc(-c3ccccc3)c2)C1` [I-63B], for which the IC50 was 1 to 10 µM.

Consider `C[C@@H](OCC1CCCCC1)[C@H](NC(=O)C1CN(C(=O)c2cncs2)CC12CN(C(=O)[C@H]1CC1(C)C)C2)C(=O)N1CCC[C@@H](CO)C1` (stereo partly shown) [I-197], for which the IC50 was no more than 0.01 µM.

As to `CN1CC[C@@H](NC(=O)[C@@H]2CN(C(=O)c3cnn(Cc4ccccc4)c3)CC23CN(C(=O)[C@H]2CC2(C)C)C3)C1=O` [I-258], the IC50 is greater than 10 µM.
